Results on 19 molecules are retold here after patent US7842671B1, “Peptidomimetic inhibitors of STAT activity and uses thereof” (University of South Florida, priority 2003, dated 2010).

The target in one test is Stat3 (Mus musculus, UniProt P42227). Description: EMSA of Stat3 DNA-binding activity in nuclear extracts (hSIE probe). In kind it is biochemical. More on the design: nuclear extracts (prepared from epidermal growth factor (EGF)-stimulated fibroblasts); endogenous in cells; host or cells: NIH3T3 fibroblasts stimulated with EGF. The conditions noted are these: for selectivity among Stat3, Stat1 and Stat5 (in words): EMSA IC50 comparison; for effect on Stat3 DNA-binding activity in vitro (in words): nuclear extracts. As to the method: (§1) Nuclear extract preparation and gel shift assays. Nuclear extracts were prepared from cell lines and used for electrophoretic mobility shift assay (EMSA) as previously described (Garcia, R. et al. (1997); Yu, C. L. et al. (1995); Turkson, J. et al. (1998)). In some cases, cells were pre-treated with peptidomimetics for the indicated times (12-48 h) prior to harvesting for nuclear extract preparation. In other studies, nuclear extracts were pre-incubated with peptidomimetics for 30 min at room temperature prior to incubation with radiolabeled probe. The ^32P-radiolabeled oligonucleotide probes used are hSIE (high affinity sis-inducible element, m67 variant, 5′-[…]-3′) (SEQ ID NO. 3) that binds both Stat1 and Stat3 (Garcia, R. et al. (1997); Wagner B. J. et al. (1990)) and MGFe (mammary gland factor element from the bovine β-casein gene promoter, 5′-[…]-3′) (SEQ ID NO. 4) that binds Stat1 and Stat5 (Gouilleux, F. et al. (1995); Seidel, H. M. et al. (1995)).
(§2) Peptidomimetics of the invention can be prepared by replacing prolyl or alanyl residue at the peptide bond that is N-terminal to the phosphotyrosine (Y*) of a peptide such as PY*L or AY*L with an organic substituent such as an optionally substituted aryl or heteroaryl group. The activities of STATs were measured in nuclear extracts (prepared from epidermal growth factor (EGF)-stimulated fibroblasts) as DNA-bound protein complexes by electrophoretic mobility shift assay (EMSA).
From densitometric analysis of band intensities, the IC50 values (concentration of peptidomimetic at which DNA-binding activity is reduced by 50%), which are reported in Table 3, were determined.
A general note: Mobility shift assays separate free from complexed probe on a gel.

Another test relates to NIH3T3/v-Src. Description: Apo-BrdU labeling and flow cytometry for apoptotic cells. In kind it is cell-based, mouse. The conditions noted are these: NIH3T3/v-Src, 1 mM, 48 h, Apo-BrdU, flow cytometry. As to the method:
(§3) Cell proliferation, soft-agar growth and Apo-BrdU labeling studies. Proliferating fibroblasts and human tumor cells were counted by phase-contrast microscopy for viable cells (using tyrpan blue exclusion). Colony formation assays in six-well dishes and quantification of colonies by iodonitrotetrazolium violet have been previously described (Turkson, J. et al. (1999)). Treatment of cells with inhibitors was initiated 1 day after seeding cells by adding 75 μl of medium with or without inhibitor, and repeated every two to three days. Apoptosis was measured by Apo-BrdU labeling and following the supplier's (PharMingen; San Diego, Calif.) instructions.
(§4) Because one of the functions of Stat3 is to protect transformed or tumor cells from apoptosis (Catlett-Falcone, R. et al. (1999b); Epling-Burnette, P. K. et al. (2001); Grandis, J. R. et al. (2000); Bowman, T. et al. (2000b); Bromberg, J. F. et al. (1999)), the ability of peptidomimetics of the invention (and PY*LKTK-MTS for comparison) (SEQ ID NO. 1) to induce apoptosis in Stat3-dependent transformed fibroblasts was evaluated. Viral Src-transformed NIH3T3/v-Src fibroblasts were treated with or without compounds for 48 h. Treated cells were then labeled with Apo-BrdU (PharMingen; San Diego, Calif.) for detection of DNA breaks.
On the technique in general: Incorporation of labelled thymidine or its analogues reports DNA synthesis.

A further test relates to NIH3T3. The description is as above. In kind it is cell-based, mouse. Particulars: NIH3T3, 1 mM, 48 h, flow cytometry. As to the method:
as §3, §4

The target of another test is T1, Stat1:Stat3 (Mus musculus, UniProt P42227).
T1 construct: nuclear extracts (prepared from epidermal growth factor (EGF)-stimulated fibroblasts); endogenous in cells; host or cells: NIH3T3 fibroblasts stimulated with EGF
Description: EMSA of Stat1:Stat3 heterodimer DNA-binding in nuclear extracts (hSIE probe). In kind it is biochemical. The conditions noted are these: nuclear extracts pre-incubated 30 min, mean and SD of at least 3 assays, read-out: IC50 values against STAT Dimers, Stat1:Stat3. As to the method:
as §1, §2

For the next test, the target named is T2, Stat1:Stat1 (Mus musculus, UniProt P42225).
T2 construct: nuclear extracts (prepared from epidermal growth factor (EGF)-stimulated fibroblasts); endogenous in cells; host or cells: NIH3T3 fibroblasts stimulated with EGF
T2 sequence (P42225 1-749): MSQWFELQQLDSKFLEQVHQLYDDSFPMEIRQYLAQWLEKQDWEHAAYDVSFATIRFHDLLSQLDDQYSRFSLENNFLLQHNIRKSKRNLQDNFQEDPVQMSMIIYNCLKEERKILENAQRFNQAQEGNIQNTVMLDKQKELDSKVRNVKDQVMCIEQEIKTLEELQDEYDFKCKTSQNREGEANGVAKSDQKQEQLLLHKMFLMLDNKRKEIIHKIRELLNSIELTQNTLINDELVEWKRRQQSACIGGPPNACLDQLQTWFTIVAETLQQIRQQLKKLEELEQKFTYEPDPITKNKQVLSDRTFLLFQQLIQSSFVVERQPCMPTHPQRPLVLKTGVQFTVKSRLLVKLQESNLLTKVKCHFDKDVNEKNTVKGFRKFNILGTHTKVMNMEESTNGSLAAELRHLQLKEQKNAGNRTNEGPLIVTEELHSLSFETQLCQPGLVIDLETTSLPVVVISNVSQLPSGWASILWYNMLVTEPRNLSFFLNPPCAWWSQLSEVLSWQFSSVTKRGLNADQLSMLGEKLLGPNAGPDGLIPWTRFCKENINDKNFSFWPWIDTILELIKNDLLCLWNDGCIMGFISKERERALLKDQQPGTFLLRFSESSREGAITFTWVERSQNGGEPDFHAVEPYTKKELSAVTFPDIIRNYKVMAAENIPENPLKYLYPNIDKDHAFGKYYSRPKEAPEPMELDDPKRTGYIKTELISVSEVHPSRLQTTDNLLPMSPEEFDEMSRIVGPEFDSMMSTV
Description: EMSA of Stat1:Stat1 DNA-binding in nuclear extracts. In kind it is biochemical. The conditions noted are these: nuclear extracts pre-incubated 30 min, EMSA; mean and SD of at least 3 assays; read-out: IC50 values against STAT Dimers, Stat1:Stat1. As to the method:
as §1
as §2, with “(EMSA). STAT-DNA complexes detected include Stat3:Stat3 homodimers (upper band), Stat1:Stat3 heterodimers (intermediate band) and Stat1:Stat1 homodimers (lower band) (FIG. 1A) when a ^32P-labeled hSIE oligonucleotide probe is used, or Stat5:Stat5 (upper band) and Stat1:Stat1 dimers (lower band) (FIG. 1B) when ^32P-labeled MGFe is used as a probe.” for “(EMSA).”

For another test, the target named is Stat5:Stat5. Description: EMSA of Stat5:Stat5 DNA-binding in nuclear extracts. In kind it is biochemical, mouse. Particulars: nuclear extracts pre-incubated 30 min, mean and SD of at least 3 assays, read-out: IC50 values against STAT Dimers, Stat5:Stat5. As to the method: as §1
as §2, with “(EMSA). STAT-DNA complexes detected include Stat3:Stat3 homodimers (upper band), Stat1:Stat3 heterodimers (intermediate band) and Stat1:Stat1 homodimers (lower band) (FIG. 1A) when a ^32P-labeled hSIE oligonucleotide probe is used, or Stat5:Stat5 (upper band) and Stat1:Stat1 dimers (lower band) (FIG. 1B) when ^32P-labeled MGFe is used as a probe.” for “(EMSA).”

Test [1] concerns the target Stat3:Stat3 homodimers (activated Stat3 in nuclear extracts of EGF-stimulated NIH3T3 fibroblasts) (mouse) (UniProt P42227). Briefly: cell-based or functional assay.
Where [2] appears, read: nuclear extracts pre-incubated 30 min, hSIE probe, EMSA, mean and SD of at least 3 assays, read-out: IC50, disruption of Stat3 DNA-binding activity.

Read-outs that look alike come from different tables or passages of the source. Square brackets hold non-standard residues; d marks the D form. Peptide text beside a SMILES is read from it. * marks the point of attachment. pY = N[CH](Cc1ccc(OP(=O)(O)O)cc1)C(=O)O; Nicotinoyl = O=C(c1cccnc1)*; 3Abz = Nc1cccc(C(=O)O)c1; Isobutyryl = CC(C)C(=O)*; 2Abz = Nc1ccccc1C(=O)O

T1 sequence (P42227 whole entry): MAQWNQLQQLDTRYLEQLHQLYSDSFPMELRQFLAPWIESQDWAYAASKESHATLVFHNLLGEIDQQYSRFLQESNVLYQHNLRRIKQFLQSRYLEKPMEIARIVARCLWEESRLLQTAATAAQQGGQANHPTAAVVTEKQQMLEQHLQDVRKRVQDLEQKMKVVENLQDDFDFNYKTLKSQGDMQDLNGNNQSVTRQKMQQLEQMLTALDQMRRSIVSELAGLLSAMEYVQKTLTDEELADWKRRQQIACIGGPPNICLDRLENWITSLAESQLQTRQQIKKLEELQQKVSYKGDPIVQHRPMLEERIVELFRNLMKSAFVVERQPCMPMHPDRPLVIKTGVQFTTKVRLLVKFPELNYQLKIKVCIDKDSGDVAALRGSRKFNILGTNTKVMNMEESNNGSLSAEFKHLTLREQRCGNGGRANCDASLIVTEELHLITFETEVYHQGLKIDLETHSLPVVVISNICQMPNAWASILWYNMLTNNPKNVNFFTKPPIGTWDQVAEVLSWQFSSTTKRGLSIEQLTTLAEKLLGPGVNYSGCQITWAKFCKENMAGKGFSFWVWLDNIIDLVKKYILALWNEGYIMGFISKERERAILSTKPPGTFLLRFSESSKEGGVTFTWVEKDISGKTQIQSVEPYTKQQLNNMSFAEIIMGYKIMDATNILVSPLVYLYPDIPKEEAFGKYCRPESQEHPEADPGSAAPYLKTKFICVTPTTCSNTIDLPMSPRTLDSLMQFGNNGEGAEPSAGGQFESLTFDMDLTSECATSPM
Stat3, sequence (P42227 whole entry): as above

In general, IC50 refers to the midpoint of a concentration-inhibition curve. Regarding `CC(C)CC(NC(=O)C(Cc1ccc(OP(=O)(O)O)cc1)NC(=O)c1cc([N+](=O)[O-])ccc1F)C(=O)O` (stereo not shown) [ISS 375], the IC50 at Stat3 was over 1000 µM. As for “PYLKTK-AAVLLPVLLAAP (PYLKTKAAVLLPVLLAAP; membrane translocating sequence; murine) [PYLKTK-MTS]”, the “percent of apoptotic cells” value in the test on NIH3T3/v-Src turned out to be 0.4%; in the test with NIH3T3 it was 1.2%.

For the molecule `Cc1ccc(C(=O)NC(Cc2ccc(OP(=O)(O)O)cc2)C(=O)NC(CC(C)C)C(=O)O)cn1` (stereo not shown) [ISS 223], the IC50 at Stat3 amounted to 225 µM.

Molecule `CC(C)CC(NC(=O)C(Cc1ccc(OP(=O)(O)O)cc1)NC(=O)c1ccc(-c2ccccc2)cc1)C(=O)O` (stereo not shown) [ISS 355] displayed a concentration for half-maximal inhibition (IC50) at Stat3 of over 1000 µM.

`CC(C)CC(NC(=O)C(Cc1ccc(OP(=O)(O)O)cc1)NC(=O)c1ccc(N)nc1)C(=O)O` (stereo not shown) [ISS 249] registered an IC50 at Stat3 of over 1000 µM. On to `CC(C)CC(NC(=O)C(Cc1ccc(OP(=O)(O)O)cc1)NC(=O)c1cccc(N)c1)C(=O)O` (stereo not shown) [ISS 248] (H-[3Abz]-[pY]-Leu-OH; configuration not given here), for which the IC50 on Stat3 was over 1000 µM.

Consider `Cc1cnc(C(=O)NC(Cc2ccc(OP(=O)(O)O)cc2)C(=O)NC(CC(C)C)C(=O)O)cn1` (stereo not shown) [ISS 493], for which the IC50 on Stat1:Stat3 worked out at 230 µM; on Stat1:Stat1, 273 µM; on Stat5:Stat5 it was 300 µM; at Stat3 (setting [2]), 38 µM. The “selectivity among Stat3, Stat1 and Stat5 (in words)” value on Stat3 is listed as “preferential suppression of Stat3 activity over those of Stat1 or Stat5”. As to `COc1cccc(OC)c1C(=O)NC(Cc1ccc(OP(=O)(O)O)cc1)C(=O)NC(CC(C)C)C(=O)O` (stereo not shown) [ISS 637], the IC50 is 195 µM on Stat1:Stat3, 255 µM at Stat1:Stat1, 695 µM at Stat5:Stat5 and 55 ± 35 µM on Stat3 (setting [2]). Also, the “selectivity among Stat3, Stat1 and Stat5 (in words)” value at Stat3 was “preferential suppression of Stat3 activity over those of Stat1 or Stat5”. In addition, at Stat3 (in vitro, EMSA), the “increase in potency in inhibiting Stat3 DNA-binding activity compared to tripeptides PY*L or AY*L” value was determined as 5 fold. Also, the “effect on Stat3 DNA-binding activity in vitro (in words)” value on Stat3 (EMSA) is “potent disrupters of active Stat3”.

Regarding `CC(C)CC(NC(=O)C(Cc1ccc(OP(=O)(O)O)cc1)NC(=O)c1ccccc1-c1ccccc1)C(=O)O` (stereo not shown) [ISS 360], the IC50 at Stat3 was 420 µM. Regarding `CC(=O)NC(Cc1ccc(OP(=O)(O)O)cc1)C(=O)NC(CC(C)C)C(=O)O` (stereo not shown) [ISS230] (Ac-[pY]-Leu-OH; configuration not given here), the IC50 on Stat3 is over 1000 µM. As for `CC(C)CC(NC(=O)C(Cc1ccc(OP(=O)(O)O)cc1)NC(=O)c1cccnc1)C(=O)O` (stereo not shown) [ISS 219] (Nicotinoyl-[pY]-Leu-OH; configuration not given here), the IC50 at Stat3 (setting [2]) was 232 µM. As for `CC(C)CC(NC(=O)C(Cc1ccc(OP(=O)(O)O)cc1)NC(=O)c1ccccc1N)C(=O)O` (stereo not shown) [ISS 265] (H-[2Abz]-[pY]-Leu-OH; configuration not given here), at Stat3 (setting [2]), the IC50 is over 1000 µM. Prolylphosphotyrosylleucine (peptide) registered an IC50, concentration at which Stat3 DNA-binding (EMSA, hSIE probe) is reduced by 50% in test [1] of 182 µM. On to `CC(C)CC(NC(=O)C(Cc1ccc(OP(=O)(O)O)cc1)NC(=O)c1cnc2ccccc2c1)C(=O)O` (stereo not shown) [ISS 363], for which, at Stat3, the 50% inhibitory concentration (IC50) turned out to be 643 µM. Still for that read-out and setting: to `CC(C)CC(NC(=O)C(Cc1ccc(OP(=O)(O)O)cc1)NC(=O)C(C)C)C(=O)O` (stereo not shown) [ISS234] (Isobutyryl-[pY]-Leu-OH; configuration not given here) belongs over 1000 µM. Consider `CC(C)CC(NC(=O)C(Cc1ccc(OP(=O)(O)O)cc1)NC(=O)c1ccc2ccccc2c1)C(=O)O` (stereo not shown) [ISS 353], for which the IC50 at Stat3 (setting [2]) is 650 µM. As for `CC(C)CC(NC(=O)C(Cc1ccc(OP(=O)(O)O)cc1)NC(=O)c1cccc2ccccc12)C(=O)O` (stereo not shown) [ISS 352], at Stat3, the IC50 was 410 µM. In turn, Alanylphosphotyrosylleucine (peptide) had an IC50, concentration at which Stat3 DNA-binding (EMSA, hSIE probe) is reduced by 50% in test [1] of 217 µM. Consider `Cc1ncccc1C(=O)NC(Cc1ccc(OP(=O)(O)O)cc1)C(=O)NC(CC(C)C)C(=O)O` (stereo not shown) [ISS 221], for which the IC50 on Stat1:Stat3 is 455 µM; on Stat1:Stat1, 310 µM; on Stat5:Stat5, 50 µM; at Stat3 (setting [2]), 75 µM. Further, the “effect on Stat3 DNA-binding activity in vitro (in words)” value at Stat3 (EMSA) was “potent disrupters of active Stat3”.
